“Also recorded” adds a separate entry of the source.
Columns and labels:
HIVADA [1] = assay: HIV replication in CD4+ T lymphocytes, HIV-p24 ELISA; type: cell-based, Human immunodeficiency virus-1 (HIV); settings: supernatants each day for 7 days, 10Panx1 200 μM, scrPanx1 200 μM, siRNA 10 nM
Method: (§1) HIV-infection and quantification of replication. Cell-free viral inocula were obtained from the National Institutes of Health AIDS Research and Reference Reagent Program. Three isolates were used: HIVADA, and HIVBal, two R5 isolates and HIVLAI, an X4 isolate, PBMCs and purified CD4+ T lymphocytes were isolated and activated with phytohemagglutinin (PHA; 5 μg/ml) plus interleukin (IL-2; 5%) in RPMI 1640 for 48 h in polypropylene tubes at a density of 2×10^6 […] PBMCs and CD4+ T lymphocytes were then infected by incubation for 24 h with viral stocks of HIVADA (20 ng p24/ml/1×10^6 cells), HIVLAI (20 ng p24/ml/1×10^6 cells) or HIVBal (0.001 MOI), washed thoroughly, resuspended in fresh medium, and maintained in polypropylene tubes. Uninfected control cells were activated with PHA plus IL-2 for 48 h, washed, and maintained in polypropylene tubes in fresh media without any virus. To determine the levels of HIV infection, the amount of HIV-p24 released into the medium was determined by ELISA (PerkinElmer, Boston, Mass.)

Panx1 hemichannels [2] = target: T1, Panx1 hemichannels (Homo sapiens, UniProt Q96RD7); assay: Etd uptake in CD4+ T lymphocytes induced by chemokines or gp120; type: cell-based; design: endogenous in cells; host or cells: primary human PBMCs and purified CD4+ T lymphocytes from leukopacks (New York Blood Center); settings: gp120 1 μg/ml, 5 min
T1 sequence (Q96RD7 whole entry): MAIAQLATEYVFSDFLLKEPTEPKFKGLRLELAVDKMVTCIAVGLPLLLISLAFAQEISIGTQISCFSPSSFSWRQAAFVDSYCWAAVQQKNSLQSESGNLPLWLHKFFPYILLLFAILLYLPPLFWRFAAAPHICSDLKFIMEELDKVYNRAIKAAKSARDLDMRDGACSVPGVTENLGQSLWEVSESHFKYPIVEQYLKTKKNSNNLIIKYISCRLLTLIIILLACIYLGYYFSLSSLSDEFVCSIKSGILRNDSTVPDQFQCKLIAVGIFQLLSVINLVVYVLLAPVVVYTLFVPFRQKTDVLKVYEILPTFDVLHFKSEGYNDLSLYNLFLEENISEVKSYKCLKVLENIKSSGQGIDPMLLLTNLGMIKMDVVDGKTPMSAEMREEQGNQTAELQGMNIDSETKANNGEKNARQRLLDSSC
Method: (§2) Dye uptake and time lapse fluorescence imaging. To characterize the functional state of Panx1 hemichannels, dye uptake experiments using ethidium (Etd) bromide were performed as previously described (18, 19). Cells were washed twice in Hank's balanced salt solution and then exposed to Locke's solution (containing: 154 mM NaCl, 5.4 mM KCl, 2.3 mM CaCl2, 5 mM HEPES and pH 7.4) with 5 μM Etd and time lapse microscopy was performed. Phase-contrast and fluorescence microscopy with time-lapse imaging were used to record cell appearance and fluorescence intensity changes in each condition. Fluorescence was recorded every 30 s. The NIH ImageJ program was used for off-line image analysis and fluorescence quantification. For data representation and calculation of Etd uptake slopes, the average of two independent background fluorescence intensity measurements (FB, expressed as arbitrary units, AU) was subtracted from fluorescence intensity′ in each cell (F1). Results of this calculation (F1-FB), for at least 20 cells, were averaged and plotted against time (expressed in minutes). Slopes were calculated using Microsoft Excel software and expressed as AU/min. Microscope and camera settings remained the same in all experiments. Dead cells were clearly identified during the time lapse microscopy due to their non specific Etd uptake (not inhibited by hemichannel blockers) and were not quantified.

Panx1 hemichannels [3] = target: T1, Panx1 hemichannels; assay: HIV-induced ethidium (Etd) dye uptake, time lapse fluorescence imaging, in PBMCs and CD4+ T lymphocytes; type: cell-based; design: endogenous in cells; host or cells: primary human PBMCs and purified CD4+ T lymphocytes from leukopacks (New York Blood Center); settings: PBMCs exposed to HIVADA; CD4+ T lymphocytes exposed to HIVADA, HIVBal or HIVLAI; 5 min and 72 h; Prob 500 μM, 10Panx1 200 μM, scrPanx1 200 μM, La3+ 200 μM, Cx43E2 1:500, siRNA 10 nM
Method: Isolation of human PBMCs and CD4+ T lymphocytes. Anticoagulated blood was obtained from leukopacks obtained from the New York Blood Center as described before (16). PBMCs were isolated by under-layering with Ficoll-Paque (Amersham Bioscience, Uppsala, Sweden) according to the procedure described by the manufacturer. Purified PBMC used in these studies were ˜10% monocytes and ˜90% lymphocytes and other hematopoietic cells, as determined by incubation with premixed human CD45 and CD14 monoclonal antibodies conjugated to FITC and PE, respectively (1:50, Caltag Laboratories, Burlingame, Calif.), followed by fluorescence-activated cell sorter analysis (FACS) as we previously described (17). To obtain a pure population of CD4+ T lymphocytes, monocytes were removed from PBMCs by using CD14 coupled magnetic beads and subsequently CD4+ T lymphocytes were isolated with CD4 coupled magnetic beads (Stem Cell Technologies, Vancouver, BC, Canada).
as §1, §2

HIV = HIV replication in macrophage cultures, strain not named; type: cell-based; settings: macrophage cultures; BBG concentration and strain not printed at the place
Method: (§3) HIV replication: After 6 days in culture, macrophages in 48-well plates at a density of 10^5 cells per well were inoculated with 2-20 ng/ml HIVADA, 2 ng/ml HIVYU-2, or 0.2 ng/ml HIVBaL for 24 hours in the presence or absence of purinergic receptor inhibitors. 5 wells were inoculated per condition. After 24 hours, cells were washed with PBS and then cultured with media. Supernatants were collected and medium was changed every 24 hours until 7 days post inoculation (d.p.i.). When the inhibitors oATP, A-740003, MRS 2179, NF 279, BBG, or suramin, were used, they were added when the medium was changed every 24 hours. Viral replication was analyzed by HIV p24 ELISA (Advanced Bioscience Laboratories, Kensington, Md.) according to the manufacturer's instructions

[4] = cited from earlier work
Macrophages = assay: Cell viability of macrophages, live/dead assay; type: cell-based; settings: 100 μM, 24 hours
From the text: Cells were imaged using a Zeiss AxioObserver.D1 with an LD Plan-Neofluar 20×/0.4 air objective lens. Images were collected at room temperature through a Zeiss AxioCam MRm camera using Axiovision software.

Panx1 hemichannels [5] = target: T1, Panx1 hemichannels; assay: HIV-induced Etd uptake in CD4+ T lymphocytes by flow cytometry (FACS); type: cell-based; design: endogenous in cells; host or cells: primary human PBMCs and purified CD4+ T lymphocytes from leukopacks (New York Blood Center); settings: HIVADA, 5 min and 72 h
Method: Flow cytometry. To measure Etd uptake in CD4+ T cell populations FACS analysis was performed of cells under control conditions or after HIV exposure at several time points. Etd uptake experiments were performed in CD4+ lymphocytes (3-5×10^5), and after the respective time of Etd uptake, cells were fixed with 2% paraformaldehyde for 30 min at room temperature, incubated with 1% BSA in PBS for 30 min and stained with CD4 antibody for 30 min at 4° C. For analyses of Etd positive populations, 10,000 events were acquired on a BD FACS Canto II and analyzed using FlowJo (Ashland, Oreg.) software as we previously described (17, 20).

[6] = tested on: β-lactamase containing HIVBaL; assay: HIV Entry Assay (β-lactamase / CCF2-AM) in primary human macrophages; type: cell-based, Human immunodeficiency virus-1 (HIV); settings: 100 μM; 4 hours; MOI 0.001-0.01; oATP N=5, others N=3
Method: HIV Entry Assay: Primary human macrophages were cultured in black 96-well plates with a clear bottom (Corning Inc., Corning, N.Y.) at a density of 43,000 cells per well. After 7-8 days in culture, cells were inoculated with β-lactamase containing HIVBaL at a multiplicity of infection (MOI) of 0.01, 0.005, or 0.001 in the presence or absence of the purinergic receptor inhibitors oATP, NF 279, A-740003, or MRS 2179 for 4 hours. Beta-lactamase containing HIVBaL was generated as described previously (27). Briefly, HEK-293T cells were transfected using calcium phosphate with two plasmids, one containing the HIVBaL genome, pWT/BaL (NIH repository), the other containing β-lactamase fused to REV vpr, pMM310 (NIH repository). Cells were transfected for 16 hours and then supernatant was collected 24 and 48 hours following transfection. […] Viral stocks were generated by sucrose gradient purification of the transfection supernatants.
Alter viral inoculation of primary human macrophages, cells were washed with phenol red-free DMEM (Gibco) then loaded with CCF2-AM for 6 hours at room temperature using the GeneBLAzer In Vivo Detection Kit (Invitrogen, Carlsbad, Calif.). CCF2-AM fluoresces green due to an internal fluorescence resonance energy transfer, but when cleaved by β-lactamase, this interaction is lost and the molecule fluoresces blue. Cells were imaged using an Olympus IX70 with a Plan 10×/0.25 air objective lens. Images were collected at room temperature through an Olympus E-620LS camera attached to the microscope through an OM adapter MF-1. Images were collected directly onto a memory card and there was no image processing following image collection. Images were collected for 8 fields in 4 separate wells per condition and percentage of cells positive for viral entry was determined by counting the number of blue cells (cells that virus had entered) as compared to the total number of blue and green cells.

HIVADA [7] = assay: HIV replication in primary human macrophages, HIV p24 ELISA; type: cell-based, Human immunodeficiency virus-1 (HIV)
From the text: (§4) Monocyte isolation and macrophage culture: Human monocytes were isolated from leukopaks obtained from the New York Blood Center. Peripheral blood mononuclear cells (PBMCs) were isolated by differential centrifugation using a Ficoll gradient (GE Healthcare, Piscataway, N.J.) and CD14 positive cells were isolated from PBMCs using CD14 monoclonal antibodies that were then bound by magnetic nanoparticles and separated using a magnetic field (Stem Cell Technologies, Vancouver, BC, Canada). Isolated CD14 positive cells were cultured adherently for 6 days in the presence of 10 ng/ml macrophage-colony stimulating factor (PeproTech, Rocky Hill, N.J.) in RPMI 1640 with 10% FBS, 5% human AB serum, 1% P/S, and 10 mM HEPES to differentiate the cells into macrophages.
as §3

HIVYU-2 = assay: as above; type: cell-based, Human immunodeficiency virus-1 (HIV); settings: 100 μM oATP; every d.p.i.; N=3
From the text: as §4, §3

HIVBaL = assay: as above; type: cell-based, Human immunodeficiency virus-1 (HIV); settings: 100 μM oATP; according to d.p.i.; N=3
From the text: as §4, §3

HIVADA [8] = assay: Immunofluorescence, percentage of HIV p24 positive macrophages; type: cell-based, Human immunodeficiency virus-1 (HIV); settings: 100 μM oATP, 7 d.p.i.
Method: Immunofluorescence: After 6 days in culture, macrophages cultured in 35 mm MatTek dishes at a density of 10^6 cells per dish were inoculated with 20 ng/ml HIVADA for 24 hours in the presence or absence of oATP. Two MatTek dishes were inoculated per condition. After 24 hours, cells were washed with PBS and cultured with media. Fresh oATP was added and the medium was changed every 24 hours until 7 d.p.i. Cells were then fixed using cold 70% ethanol for 20 minutes. Cells were washed with PBS and blocked using 0.9% fish gelatin, 50 μM EDTA. 1% horse serum, and 1% globulin-free albumin. The following primary antibodies were used: mouse monoclonal HIV p24 antibody from Abeam at a 1:50 dilution (Cambridge, Mass.) or mouse myeloma IgG1 (Sigma) as a negative control. Secondary antibody staining was with anti-mouse IgG F(ab)′2 fragment conjugated to FITC (Sigma). Actin was stained using Texas Red-X conjugated to phalloidin (Invitrogen, Eugene, Oreg.). ProLong Gold antifade reagent containing DAPI was added to all cells to stain for nuclei. Cells were imaged using a Zeiss AxioObserver.D1 with an LD Plan-Neofluar 20×/0.4 air objective lens. […] Images for 15 fields per condition were analyzed and percentage of p24 positive cells determined by counting number of nuclei in cells with green cytoplasmic staining.

purinergic receptors = settings: in vivo mouse model; reference 99; cited from earlier work

FADRYWAQVS (scrambled peptide) [scrPanx1]
HIV replication (HIV-p24 release into the media) (HIVADA [1]): did not alter
gp120-induced Etd uptake, in presence of blockers (Panx1 hemichannels [2]): No effects
Etd uptake (rate) induced by the virus (Panx1 hemichannels [3]): did not affect

CCOc1ccc(Nc2ccc(/C(=C3C=C/C(=[N+](/CC)Cc4cccc(S(=O)(=O)[O-])c4)C=C/3C)c3ccc(N(CC)Cc4cccc(S(=O)(=O)[O-])c4)cc3C)cc2)cc1.[Na+] [BBG, brilliant blue G]
inhibition of viral replication relative to cultures infected with HIV only (HIV): 54-90%
recovery after spinal cord injury ([4]; rat model of traumatic spinal cord injury, reference 75): recovery of motor function and limited inflammation following spinal cord injury
toxicity in vivo ([4]; rat, in vivo): without any toxicity
cell viability (live/dead assay) (Macrophages): None of the antagonist caused any decrease in cell viability

WRQAAFVDSY (Panx1 mimetic blocking peptide) [10Panx1]
Etd uptake induced by the virus, analyzed by FACS (Panx1 hemichannels [5]): reduced Etd uptake; also recorded: reduced to control conditions (100%)
HIV replication (HIV-p24 release into the media) (HIVADA [1]): abolished HIV replication to almost control undetectable levels; also recorded: dramatically reduced
gp120-induced Etd uptake, in presence of blockers (Panx1 hemichannels [2]): inhibited
Etd uptake (rate) induced by the virus (Panx1 hemichannels [3]): completely blocked; also recorded: completely reduced

Nc1ncnc2c1ncn2[C@@H](C=O)O[C@@H](C=O)COP(=O)(O)OP(=O)(O)OP(=O)(O)O [oATP, oxidized ATP]
reduction in viral entry (percentage of cells with viral entry) relative to HIV only [6]: 57%
effect on HIVADA p24 production (HIVADA [7]; 1 μM oATP, N=5): no effect
inhibition of HIVADA p24 production relative to HIV only (HIVADA [7]; 10 μM oATP, depending upon d.p.i., N=5): 50-85%
HIVADA replication reduced (HIV p24) relative to HIV only (HIVADA [7]; 100 μM oATP, depending upon the d.p.i., up to 7 d.p.i., N=10): 92-99%
HIVYU-2 replication reduced relative to HIV only (HIVYU-2): over 99%
HIVBaL replication reduced relative to HIV only (HIVBaL): 89-97%
cell viability (live/dead assay) (Macrophages): None of the antagonist caused any decrease in cell viability; also recorded: did not reduce cell viability
decrease in the percentage of HIV p24 positive cells (HIVADA [8]; 20 ng/ml HIVADA, N=3): 92%
multinucleated giant cells in cultures (HIVADA [8]; HIVADA, compared to HIV infected cultures): very few multinucleated giant cells were detected
onset of diabetes and inflammatory bowel disease (purinergic receptors): can prevent the onset of diabetes and inflammatory bowel disease
